The subject of test [1] is HS-PSS. Briefly: % inhibition of CellTiter-Glo viability at highest tested concentration (72 h), relative to DMSO and benzethonium chloride controls; higher = more inhibition. The gist of the method: (§1)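 Viability was scored by CellTiter-Glo ATP luminescence, scaled from vehicle to positive-control wells, with duplicates averaged where present. The cells, MPNST lines and primary human Schwann cells at 750–1000 per well, sat 72 h at 37 °C, 5% CO2, in 384-well plates preprinted with each compound at five concentrations in 10-fold steps. Four-parameter logistic fits were run on the data. These fits give drug sensitivity score and relative IC50 censored at the top concentration, and percent inhibition is reported at the top concentration.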
In general terms: ATP-based viability assays read luminescence as a measure of living cells.

Test [2] relates to S1507-2. The test is described as above. The gist of the method:
as §1

The subject of test [3] is HSC1 (primary human Schwann cells). The description is as above. In outline:
as §1

Test [4] concerns YST-1. The description is as above. The gist of the method:
as §1

The test system of test [5] is S462. The description is as above. The gist of the method: as §1
For test [6], the system named is ST8814. The test is described as above. In outline: as §1
Test [7] has as its system HSC2 (primary human Schwann cells). Described as above. The gist of the method:
as §1

For test [8], the system named is STS26T. Described as above. The gist of the method: as §1
The subject of test [9] is HS-Sch-2. The test is described as above. The gist of the method: as §1
In test [10] the test system is HS-PSS. Briefly: drug sensitivity score (DSS, CellTiter-Glo viability, 72 h) (DSS (dimensionless)); higher = more sensitive; extreme values may be limits of the assay. In outline: as §1
In test [11] the test system is S1507-2. The test is described as above. The gist of the method: as §1
Test [12] concerns HSC1 (primary human Schwann cells). Described as above. The gist of the method:
as §1

For test [13], the system named is YST-1. The test is described as above. The gist of the method:
as §1

In test [14] the test system is S462. The description is as above. In outline: as §1
The subject of test [15] is ST8814. Described as above. The gist of the method: as §1
The subject of test [16] is HSC2 (primary human Schwann cells). The test is described as above. In outline: as §1
In test [17] the test system is STS26T. Described as above. In outline: as §1
The test system of test [18] is HS-Sch-2. Described as above. The gist of the method: as §1
Test [19] has as its system HS-PSS. The test is described as follows: drug sensitivity score (DSS, CellTox-Green cytotoxicity, 72 h) (DSS (dimensionless)); higher = more cytotoxic; extreme values may be limits of the assay. In outline: (§2)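 MPNST cell lines and primary human Schwann cells were incubated 72 h at 37 °C in 384-well plates holding five 10-fold compound dilutions. CellTox-Green was added before seeding at a final 1:1000 dilution and reported fluorescence from DNA released by disrupted cells. Signals were scaled to vehicle and positive-control wells, and cultures failing plate quality control were dropped. Drug sensitivity score and relative IC50 come from four-parameter logistic fits, with IC50 censored at the top concentration.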

Test [20] deals with S1507-2. The description is as above. The gist of the method: as §2
Test [21] concerns HSC1 (primary human Schwann cells). Described as above. The gist of the method:
as §2

The subject of test [22] is ST8814. Described as above. The gist of the method:
as §2

For test [23], the system named is HSC2 (primary human Schwann cells). The description is as above. In outline: as §2
For test [24], the system named is STS26T. The test is described as above. The gist of the method:
as §2

± gives the standard deviation of the averaged measurements.

On to `O=C(CCBr)N1CCN(C(=O)CCBr)CC1` [Pipobroman] (max concentration tested 10000 nM), for which the “% inhibition” value was 1.73% with HS-PSS [1]; -11.3 ± 2.3% in the test with S1507-2 [2]; 0.741% in test [3]; 4.98% with YST-1 [4]; -17 ± 7.2% in the test with S462 [5]; -3.56% in the test with ST8814 [6]. For the same molecule, the “% inhibition” value is 0.945% in test [7], -2.55% in the test on STS26T [8] and 9.93% with HS-Sch-2 [9]. Moreover, the drug sensitivity score (with HS-PSS [10]; in the test on S1507-2 [11]; in test [12]; in the test on YST-1 [13]; in the test on S462 [14]; with ST8814 [15]) was 0 in each case. Besides, the drug sensitivity score (in test [16]; with STS26T [17]; with HS-Sch-2 [18]; in the test with HS-PSS [19]; with S1507-2 [20]; in [21]) was 0 in each case. Further, the drug sensitivity score (in the test with ST8814 [22]; in test [23]; in the test with STS26T [24]) was 0 in each case.

On to `CNC(=O)c1cc(Oc2ccc(NC(=O)Nc3ccc(Cl)c(C(F)(F)F)c3)cc2)ccn1` [Sorafenib] (max concentration tested 1000 nM), for which the “% inhibition” value in the test with HS-PSS [1] is -0.19%; in the test with S1507-2 [2], -6.35 ± 3.5%; in test [3], -5.93%; in the test with YST-1 [4] it was 11.4%; in the test with S462 [5] it was -1.24 ± 2.1%; in the test with ST8814 [6] it was -4.54%. In addition, the results for the “% inhibition” value (in test [7]; in the test on STS26T [8]; in the test with HS-Sch-2 [9]) were -21.1%, -3.72% and -11.4%, respectively. The drug sensitivity score (in the test on HS-PSS [10]; in the test on S1507-2 [11]; in test [12]; in the test with YST-1 [13]; in the test with S462 [14]; with ST8814 [15]) was 0 each time. The drug sensitivity score (in test [16]; in the test on STS26T [17]; in the test with HS-Sch-2 [18]; in the test on HS-PSS [19]; in the test with S1507-2 [20]; in test [21]) was 0 each time. Besides, the drug sensitivity score (in the test with ST8814 [22]; in [23]; in the test with STS26T [24]) was 0 throughout.

For `C#Cc1cccc(Nc2ncnc3cc(OC)c(OCCCCCCC(=O)NO)cc23)c1` [CUDC-101] (max concentration tested 10000 nM), the “% inhibition” value was 95% in the test on HS-PSS [1]; 103 ± 1.6% with S1507-2 [2]; 102% in test [3]; 99.1% in the test with YST-1 [4]; 102.2 ± 0.43% with S462 [5]; 102% in the test with ST8814 [6]. For the same molecule, the entries for the “% inhibition” value (in [7]; with STS26T [8]; with HS-Sch-2 [9]) were 102%, 100% and 101%, respectively. The drug sensitivity score with HS-PSS [10] was found to be 12.6; with S1507-2 [11], 11.9 ± 0.6; in [12], 15.8; in the test on YST-1 [13], 20.8; with S462 [14], 13.3 ± 1.8; in the test on ST8814 [15] it was 12.3. Also, the drug sensitivity score in test [16] is 15; in the test on STS26T [17] it was 8.5; in the test with HS-Sch-2 [18], 15.7; in the test with HS-PSS [19], 6.98; in the test on S1507-2 [20] it was 9.97 ± 2.9; in test [21], 11. Further, the drug sensitivity score in the test on ST8814 [22] turned out to be 9.2; in test [23], 11.8; with STS26T [24], 6.

Turning to `CO[C@H](C(=O)[C@@H](O)[C@@H](C)O)[C@@H]1Cc2cc3cc(O[C@H]4C[C@@H](O[C@H]5C[C@@H](O)[C@H](O)[C@@H](C)O5)[C@@H](O)[C@@H](C)O4)c(C)c(O)c3c(O)c2C(=O)[C@H]1O[C@H]1C[C@@H](O[C@H]2C[C@@H](O[C@H]3C[C@](C)(O)[C@H](O)[C@@H](C)O3)[C@H](O)[C@@H](C)O2)[C@H](O)[C@@H](C)O1` [Plicamycin] (max concentration tested 10000 nM), the “% inhibition” value in the test with HS-PSS [1] was 96.8%; in the test on S1507-2 [2], 87 ± 2.5%; in [3], 83.7%; in the test on YST-1 [4], 101%; in the test with S462 [5], 97.26 ± 0.26%; with ST8814 [6] it was 82.8%. Further, the “% inhibition” value is 87% in test [7], 95.8% in the test on STS26T [8] and 102% in the test with HS-Sch-2 [9]. Also, the drug sensitivity score in the test with HS-PSS [10] is 9.51; in the test on S1507-2 [11], 22.5 ± 0.9; in [12] it was 24.4; with YST-1 [13], 14.8; in the test on S462 [14], 24.32 ± 0.091; in the test on ST8814 [15], 25.7. The drug sensitivity score in [16] turned out to be 24.6; in the test on STS26T [17], 27; in the test on HS-Sch-2 [18], 12.5; with HS-PSS [19], 2.63; in the test on S1507-2 [20], 10.4 ± 4.4; in test [21], 10.6. Also, the results for the drug sensitivity score (in the test on ST8814 [22]; in test [23]; with STS26T [24]) were 0, 12.6 and 25.9, respectively.

`Nc1ncnc2c1nc(N)n2[C@@H]1O[C@H](CO)[C@@H](O)[C@H]1O` [8-amino-adenosine] (max concentration tested 50000 nM): the “% inhibition” value in the test on HS-PSS [1] is 101%; in the test on S1507-2 [2], 99.405 ± 0.063%; in [3] it was 98%; in the test with YST-1 [4], 102%; in the test with S462 [5], 99.7 ± 0.63%; in the test on ST8814 [6], 98.4%. Moreover, the results for the “% inhibition” value (in test [7]; in the test on STS26T [8]; with HS-Sch-2 [9]) were 96.7%, 100% and 102%, respectively. The drug sensitivity score turned out to be 17.9 with HS-PSS [10]; 21.3 ± 0.37 in the test with S1507-2 [11]; 18.1 in test [12]; 22.8 with YST-1 [13]; 20.2 ± 0.77 with S462 [14]; 19.6 in the test on ST8814 [15]. Besides, the drug sensitivity score in test [16] was 15.6; with STS26T [17], 19.9; in the test on HS-Sch-2 [18], 19.3; in the test with HS-PSS [19], 3.6; with S1507-2 [20], 12.1 ± 6.4; in test [21] it was 4.02. Further, the drug sensitivity score in the test on ST8814 [22] worked out at 14.7; in test [23] it was 4.74; in the test with STS26T [24] it was 16.9.

For `C/C(=C\c1csc(C)n1)[C@@H]1C[C@@H]2O[C@]2(C)CCC[C@H](C)[C@H](O)[C@@H](C)C(=O)C(C)(C)[C@@H](O)CC(=O)O1` [Patupilone] (max concentration tested 1000 nM), the “% inhibition” value is 42.2% in the test with HS-PSS [1]; 80.9 ± 0.77% in the test with S1507-2 [2]; 70% in test [3]; 78.1% in the test with YST-1 [4]; 92.6 ± 0.95% with S462 [5]; 84.4% in the test with ST8814 [6]. Besides, the “% inhibition” value was determined as 73% in test [7], 96.8% in the test with STS26T [8] and 91.9% in the test with HS-Sch-2 [9]. The drug sensitivity score was determined as 17.9 in the test with HS-PSS [10]; 24.4 ± 1.7 in the test with S1507-2 [11]; 29.1 in test [12]; 31 with YST-1 [13]; 37.7 ± 0.67 with S462 [14]; 28.4 in the test with ST8814 [15]. The drug sensitivity score stood at 25.2 in test [16]; 36.5 with STS26T [17]; 32.7 in the test with HS-Sch-2 [18]; 0 in the test on HS-PSS [19]; 21.9 ± 2.8 with S1507-2 [20]; 11.5 in test [21]. The drug sensitivity score stood at 23.9 in the test on ST8814 [22], 18.8 in [23] and 36.6 with STS26T [24].

As a reminder, the % inhibition is the change of the read-out against control, counted positive when it falls.

(Values after the supplement of paper PMC5579334.)
